Test results taken from patent US12728121B2, “Compositions and methods for treating idiopathic pulmonary fibrosis” (Seyltx, Inc., priority 2019, dated 2026).

Experiments:
Assay type in all cases: in vivo, Mouse/C57BL/6
BLM-induced fibrosis [1] = assay: Bleomycin (BLM)-induced lung fibrosis in mice: Gomori's Trichrome score of lung sections
Experimental: (§1) The mouse species or strain was Mouse/C57BL/6, the mice being 8-10 week old males. Nine groups of 10 mice each were obtained from Charles River Laboratories. Each group was randomized based on body weight. Bleomycin (BLM) was obtained from Euroasias.
(§2) The mice were anesthetized with isoflurane/O2 mixture. Bleomycin (BLM) was then administered to the mice intratracheally (PennCentury)—single bolus, at 2.5 U/kg body weight in 50 μl sterile saline.
(§3) Seven days after the bleomycin is administered, and fibroblasts have generally proliferated, six of the nine groups of IT bleomycin challenged mice were be dosed orally (p.o.) once a day with Bromantane, Ifenoprodil, Radiprodil, Bemithyl, Dexamethasone, or Repirinast at specified amounts per kg of body weight (mg/kg) daily for 14 consecutive days. The amounts are set out in Table 1 below. The vehicle used was 0.5% carboxymethyl cellulose (CMC). Prifenidone was also prepared in 0.5% CMC and administrated orally once a day to one of the nine IT bleomycin challenged mice groups beginning for 14 consecutive days. Vehicle and no-BLM control groups received 0.5% CMC orally for 14 consecutive days.
On day 21 of the study, 4 hours after the last dose, the mice were sacrificed and plasma was collected and frozen for cytokine analysis (testing for IL-6, IL-12, TGFβ, IL-13 proteins, or fibrosis markers). Bronchoalveolar lavage fluid (BALF) was collected and frozen for optional cytokine analyses and cell counts pending the initial data. The lungs were then excised, weighed and fixed in formalin. Gomori's Trichrome stain, a histological stain, was used to determine collagen content.
Trichrome Score: A trichrome score measures the level of scarring to the lungs caused by the disease. The greater the trichrome score, the greater the scarring.
Formalin fixed lung samples were submitted to affiliated histopathology laboratory for histopathological analysis subjected Gomori's Trichrome stain, a histological stain, which was used to determine collagen content.
Each lung was divided into ten sections. All ten sections were stained and evaluated. A board certified veterinarian pathologist assessed the presence of lung fibrosis and severity score—The expression of collagen (associated with fibrosis) is determined from the ratio of the stained area versus the total area of the lung section.

BLM-induced fibrosis [2] = assay: Bleomycin (BLM)-induced lung fibrosis in mice: mortality rate over 21 days; conditions: doses as Table 1
Experimental: as §1, §2, §3
Mortality Rate: the mortality rate in each group was also observed over 21 days.

[3] = Bleomycin (BLM)-induced lung fibrosis in mice: body weight over 21 days; conditions: for Percent Change in Body Weight / Body Weight: doses as Table 1; for Body Weight: group mean
Experimental: as §1, §2, §3
Body Weight: The body weights were measured over 21 days using a laboratory balance.

[4] = doses as Table 1, order: Dexamethasone and Repirinast, followed by Ifenprodil and Radiprodil

C[C@@H]1C[C@H]2[C@@H]3CCC4=CC(=O)C=C[C@]4(C)[C@@]3(F)[C@@H](O)C[C@]2(C)[C@@]1(O)C(=O)CO [Dexamethasone]
Trichrome score (average) (BLM-induced fibrosis [1]; day 21, BLM 2.5 U/kg intratracheal, p.o. once daily 14 days from day 7, mg/kg: Pirfenidone 300, Bromantane 20, Ifenoprodil 30, Radiprodil 30, Bemithyl 200, Dexamethasone 0.25, Repirinast 90, Normal 1.00, Vehicle 4.59): 2.45
Trichrome score response versus BLM-vehicle group (in words) (BLM-induced fibrosis [1]; [4]): response was better
percent reduction in lung fibrosis in comparison to the BLM-vehicle group (in words) (BLM-induced fibrosis [1]; [4]): higher
% reduction in fibrosis (BLM-induced fibrosis [1]; from Trichrome scores relative to vehicle and normal groups, day 21, doses as Table 1, p.o. once daily 14 days): 59.6%
improvement in lung fibrosis, loss of body weight, Trichrome score and mortality as compared to BLM-vehicle (conclusion, in words) (BLM-induced fibrosis [1]; oral administration, Dexamethasone 0.25, Repirinast 90, Ifenprodil 30, Radiprodil 30 mg/kg): showed improvement
Fatality Number (BLM-induced fibrosis [2]; deaths/mice per group over 21 days, Vehicle 2/10): 2/10
percent survival (in words) (BLM-induced fibrosis [2]; order: Dexamethasone and Repirinast, followed by Ifenprodil and Radiprodil): higher
Percent Fatality (BLM-induced fibrosis [2]; over 21 days, Vehicle 20%): 20%
Percent Change in Body Weight ([3]; 7-Nov): 0.0%
Body Weight ([3]; 7-Nov): 24.3 g
Percent Change in Body Weight ([3]; 8-Nov): −0.2%
Body Weight ([3]; 8-Nov): 24.1 g
Percent Change in Body Weight ([3]; 9-Nov): −0.6%
Body Weight ([3]; 9-Nov): 23.7 g
Percent Change in Body Weight ([3]; 12-Nov): −1.9%
Body Weight ([3]; 12-Nov): 22.4 g
Percent Change in Body Weight ([3]; 14-Nov): −1.6%
Body Weight ([3]; 14-Nov): 22.7 g
Percent Change in Body Weight ([3]; 16-Nov): −0.9%
Body Weight ([3]; 16-Nov): 23.4 g
Percent Change in Body Weight ([3]; 20-Nov): −1.5%
Body Weight ([3]; 20-Nov): 22.7 g
Percent Change in Body Weight ([3]; 22-Nov): −0.1%
Body Weight ([3]; 22-Nov): 24.2 g
Percent Change in Body Weight ([3]; 26-Nov): 0.3%
Body Weight ([3]; 26-Nov): 24.5 g
Percent Change in Body Weight ([3]; 28-Nov): 0.7%
Body Weight ([3]; 28-Nov): 25.0 g
changes in body weight as compared to the BLM-vehicle group (in words) ([3]; doses as Table 1, p.o. once daily): showed improvement beginning on Day 5
